The results in this text go back to patent publication EP4796538A1, “NOVEL QUINOXALINE COMPOUNDS, MANUFACTURING METHOD THEREOF, AND USES THEREOF” (Gachon University of Industry-Academic Cooperation …, priority 2023, dated 2025).

One test deals with T1, KIF5B-RET (Homo sapiens, UniProt P07949).
T1 sequence (P07949 713-1114): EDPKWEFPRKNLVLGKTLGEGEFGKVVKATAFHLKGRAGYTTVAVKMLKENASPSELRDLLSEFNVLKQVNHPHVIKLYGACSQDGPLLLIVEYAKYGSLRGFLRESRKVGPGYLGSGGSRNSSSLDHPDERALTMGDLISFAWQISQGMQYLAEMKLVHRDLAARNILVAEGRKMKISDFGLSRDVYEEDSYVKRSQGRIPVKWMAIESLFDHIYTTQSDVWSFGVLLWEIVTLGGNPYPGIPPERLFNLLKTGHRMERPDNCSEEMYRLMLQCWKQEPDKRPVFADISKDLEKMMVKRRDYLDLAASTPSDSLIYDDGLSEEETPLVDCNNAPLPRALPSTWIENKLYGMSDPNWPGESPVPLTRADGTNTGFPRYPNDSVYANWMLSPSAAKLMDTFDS
T1 sequence (P33176 2-575 partner): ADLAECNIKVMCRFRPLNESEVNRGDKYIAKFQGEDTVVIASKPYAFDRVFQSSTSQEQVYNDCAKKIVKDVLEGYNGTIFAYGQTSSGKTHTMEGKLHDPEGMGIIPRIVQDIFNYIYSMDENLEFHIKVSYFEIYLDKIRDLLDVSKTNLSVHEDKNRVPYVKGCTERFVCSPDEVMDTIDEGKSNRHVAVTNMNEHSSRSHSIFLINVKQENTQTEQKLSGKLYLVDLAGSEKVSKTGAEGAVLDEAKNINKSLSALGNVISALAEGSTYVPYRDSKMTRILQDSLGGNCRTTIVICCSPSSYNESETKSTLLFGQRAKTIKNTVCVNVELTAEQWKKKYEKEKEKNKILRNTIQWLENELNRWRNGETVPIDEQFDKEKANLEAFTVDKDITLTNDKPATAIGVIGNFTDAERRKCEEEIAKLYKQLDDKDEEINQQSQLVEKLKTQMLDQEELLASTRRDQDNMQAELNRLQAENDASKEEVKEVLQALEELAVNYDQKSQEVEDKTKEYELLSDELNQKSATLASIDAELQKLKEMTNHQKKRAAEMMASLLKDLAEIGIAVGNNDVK
The experiment in a line: Kinase panel inhibition, radiolabeled [γ-33P] ATP (Reaction Biology Corp). It is filed as biochemical. Particulars: read-out: Enzymatic inhibitory activity (IC50) nM KIF5B-RET. The method, then: The inhibitory activities of the example and intermediate compounds of the present invention against a kinase panel (Reaction Biology Corp) of RET and RET mutations (RET(G810R), RET(V804M), KIF5B-RET, RET(V804M)-KIF5B, RET-CCDC6, RET-NCOA4, and RET(G810S/M918T)) were investigated. Using radiolabeled ATP ([γ-33P] ATP), the degree to which the substrate was replaced by a 33P-phosphorylated substrate was measured, and changes in kinase activity were determined from the measurement of the radiolabeled phosphorylated substrate. The example and intermediate compounds were tested at concentrations of 0.1 µM to 30 µM against ATP concentrations of 1 µM or 10 µM. The residual activity (%) of the example and intermediate compounds after inhibition against each kinase panel is shown in Tables 3 to 5 below. […]

In the next test the test system is BaF3-RET(V804M). In words: Cell proliferation inhibition (GI50), Cell Counting Kit-8, Ba/F3 cell line. As to conditions: Mus musculus, BaF3; 72 hours incubation; Cell Counting Kit-8; read-out: GI50 of BaF3-RET(V804M). It counts as cell-based, rodent. On the procedure:
To evaluate the inhibitory activity of the compounds represented by Formula I or Formula IV according to the present invention against RET mutation-driven cell growth in the Ba/F3 cell line and against cell growth in the non-small cell lung cancer cell line A-549, the following experiment was performed.
Each cell line was seeded in a 96-well plate at 1×10^4 cells/90 µL/well, and 10 µL/well of culture medium containing each example and intermediate compound or DMSO control at 9 concentrations (1 nM to 100 µM) prepared by 3-fold serial dilutions was added to achieve a final concentration of 0 to 100 µM, followed by incubation for 72 hours in a 37°C, 5% CO2 incubator. After 72 hours of incubation, the compound-treated plates were removed, and Cell Counting Kit-8 solution was added at 10 µL/well and mixed well. The plates were then incubated for 2 hours in a CO2 incubator at 37°C, and the absorbance was measured at 450 nm using a microplate reader.
In addition, the data were expressed as a percentage relative to vehicle-treated cells, and GI50 values were calculated using GraphPad Prism 8.0 (GraphPad Software Inc., San Diego), and the results are shown in Table 8 below. As a control compound, ponatinib, a known RET inhibitor, was treated to calculate the GI50 values.
For orientation: Tetrazolium assays rely on reduction of a dye to a coloured formazan, in cell work by metabolically active cells.

For `CCNc1cc(-c2ccc(N3CC(Oc4cccc(F)c4)C3)nc2)c2nccnc2c1` [Example 3, N-ethyl-8-(6-(3-(3-fluorophenoxy)azetidin-1-yl)pyridin-3-yl)quinoxalin-6-amine], on KIF5B-RET, the IC50 (in general, the concentration at which inhibition is half-maximal) is less than 0.5 nM. Moreover, in the test on BaF3-RET(V804M), the GI50 (in general, the concentration that inhibits growth by half) worked out at 661 nM.

For the compound `Nc1cc(-c2ccc(N3CC(Oc4cccc(F)c4)C3)nc2)c2nccnc2c1` [Example 1, 8-(6-(3-(3-fluorophenoxy)azetidin-1-yl)pyridin-3-yl)quinoxalin-6-amine], the IC50 at KIF5B-RET came to 2.2 nM. Besides, the GI50 in the test on BaF3-RET(V804M) worked out at 1460 nM.
